# Patent US20140005163A1 (NOVARTIS AG, priority 2010, published 2014)
# Key:
# Solubility at pH 6.8 = type: physicochemical; settings: pH 6.8, aqueous buffer, thermodynamic from solid; read-out: solubility
# How it was run: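 Following the procedure of Zhou et al. (2007), compound solubility was determined at pH 6.8.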
# PI3K alpha = target: T1, PI3K alpha (Homo sapiens, UniProt P42336); assay: PI3K alpha kinase assay (Kinase-Glo luminescence); type: biochemical
# T1 construct: p85(iSH2) fusion partner (see partner chain) (N); His tag (C); made in house; host or cells: baculovirus; Tn5 (Trichoplusia ni) or TiniPro insect cells
# How it was run: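 Compounds are titrated at 8 concentrations and mixed with PI3Kα protein (EMV B1075, 10 nM) in phosphatidylinositol (10 μg/mL). ATP at 1 μM starts the 60-minute room-temperature reaction, which is stopped with Kinase-Glo before luminescence reading. Four-parameter curve fitting gives IC50.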
# T1 sequence (P42336 with tags, fused parts or gaps limits assumed): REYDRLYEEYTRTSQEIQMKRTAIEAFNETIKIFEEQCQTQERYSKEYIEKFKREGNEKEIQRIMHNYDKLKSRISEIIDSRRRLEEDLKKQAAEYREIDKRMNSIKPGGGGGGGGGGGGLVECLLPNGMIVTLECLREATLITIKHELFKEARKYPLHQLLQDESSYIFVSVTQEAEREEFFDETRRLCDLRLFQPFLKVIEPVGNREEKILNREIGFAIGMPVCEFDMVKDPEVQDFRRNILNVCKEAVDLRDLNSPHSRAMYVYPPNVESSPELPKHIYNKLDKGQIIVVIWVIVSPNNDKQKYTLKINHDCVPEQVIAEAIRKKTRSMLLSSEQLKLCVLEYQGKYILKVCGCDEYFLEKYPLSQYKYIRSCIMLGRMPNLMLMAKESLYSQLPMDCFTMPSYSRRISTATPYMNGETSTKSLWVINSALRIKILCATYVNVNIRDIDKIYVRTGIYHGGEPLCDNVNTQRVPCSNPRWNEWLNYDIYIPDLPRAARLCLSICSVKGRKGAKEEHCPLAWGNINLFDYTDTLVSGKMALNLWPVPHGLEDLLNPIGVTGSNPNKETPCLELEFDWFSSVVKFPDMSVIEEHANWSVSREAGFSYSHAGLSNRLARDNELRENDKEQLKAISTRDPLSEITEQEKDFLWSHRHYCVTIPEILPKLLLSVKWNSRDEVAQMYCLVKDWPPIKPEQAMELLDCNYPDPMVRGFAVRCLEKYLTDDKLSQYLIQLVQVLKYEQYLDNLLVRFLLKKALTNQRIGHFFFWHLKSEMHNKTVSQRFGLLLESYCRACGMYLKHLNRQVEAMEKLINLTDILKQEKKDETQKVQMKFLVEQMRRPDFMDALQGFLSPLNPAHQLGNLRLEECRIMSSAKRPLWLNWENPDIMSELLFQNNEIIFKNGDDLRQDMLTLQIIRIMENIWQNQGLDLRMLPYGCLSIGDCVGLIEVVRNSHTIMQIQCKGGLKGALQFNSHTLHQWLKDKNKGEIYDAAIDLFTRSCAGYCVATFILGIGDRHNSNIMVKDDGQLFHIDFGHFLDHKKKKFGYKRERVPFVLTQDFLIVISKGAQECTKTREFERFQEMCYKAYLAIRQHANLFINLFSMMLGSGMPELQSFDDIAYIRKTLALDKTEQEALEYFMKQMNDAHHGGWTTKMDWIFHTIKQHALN
Compound,solubility (Solubility at pH 6.8) [µg/mL],IC50 (PI3K alpha) [nM]
"CCNc1cc(-c2ccc3ncc4c(c3c2)n(-c2cn(C)nc2C)c(=O)n4C)cnc1CO [Example 155.1, 1-(1,3-Dimethyl-1H-pyrazol-4-yl)-8-(5-ethylamino-6-hydroxymethyl-pyridin-3-yl)-3-methyl-1,3-dihydro-imidazo[4,5-c]quinolin-2-one]",73,13
"CNc1cc(-c2ccc3ncc4c(c3c2)n(-c2cn(C(C)C)nc2C)c(=O)n4C)cnc1CO [Example 158.2, 8-(6-Hydroxymethyl-5-methylamino-pyridin-3-yl)-1-(1-isopropyl-3-methyl-1H-pyrazol-4-yl)-3-methyl-1,3-dihydro-imidazo[4,5-c]quinolin-2-one]",> 458,44
"CNc1cc(-c2ccc3ncc4c(c3c2)n(-c2cn(C)nc2Cl)c(=O)n4C)cnc1CO [Example 158.3, 1-(3-Chloro-1-methyl-1H-pyrazol-4-yl)-8-(6-hydroxymethyl-5-methylamino-pyridin-3-yl)-3-methyl-1,3-dihydro-imidazo[4,5-c]quinolin-2-one]",3,7
"CNc1cc(-c2ccc3ncc4c(c3c2)n(-c2cn(C)nc2C)c(=O)n4C)cnc1C [Example 163, 1-(1,3-Dimethyl-1H-pyrazol-4-yl)-3-methyl-8-(6-methyl-5-methylamino-pyridin-3-yl)-1,3-dihydro-imidazo[4,5-c]quinolin-2-one]",24,6
"CCN(C)c1cc(-c2ccc3ncc4c(c3c2)n(-c2cn(C)nc2C)c(=O)n4C)cnc1C [Example 165, 1-(1,3-Dimethyl-1H-pyrazol-4-yl)-8-[5-(ethyl-methyl-amino)-6-methyl-pyridin-3-yl]-3-methyl-1,3-dihydro-imidazo[4,5-c]quinolin-2-one]",> 442,7
"Cc1nn(C(C)C)cc1-n1c(=O)n(C)c2cnc3ccc(-c4cnc(N)c(CO)c4)cc3c21 [Example 169.1, 8-(6-Amino-5-hydroxymethyl-pyridin-3-yl)-1-(1-isopropyl-3-methyl-1H-pyrazol-4-yl)-3-methyl-1,3-dihydro-imidazo[4,5-c]quinolin-2-one]",289,24
"Cc1nn(C)c(C)c1-n1c(=O)n(C)c2cnc3ccc(-c4cnc(N)c(CO)c4)cc3c21 [Example 169.2, 8-(6-Amino-5-hydroxymethyl-pyridin-3-yl)-3-methyl-1-(1,3,5-trimethyl-1H-pyrazol-4-yl)-1,3-dihydro-imidazo[4,5-c]quinolin-2-one]",> 429,34
"Cc1nn(C)cc1-n1c(=O)n(C)c2cnc3ccc(-c4cncc(NC5CCC5)c4)cc3c21 [Example 172, 8-(5-Cyclobutylamino-pyridin-3-yl)-1-(1,3-dimethyl-1H-pyrazol-4-yl)-3-methyl-1,3-dihydro-imidazo[4,5-c]quinolin-2-one]",11,39
"Cc1nn(C)cc1-n1c(=O)n(C)c2cnc3ccc(-c4cncc(N(C)C(C)C)c4)cc3c21 [Example 173, 1-(1,3-Dimethyl-1H-pyrazol-4-yl)-8-[5-(isopropyl-methyl-amino)-pyridin-3-yl]-3-methyl-1,3-dihydro-imidazo[4,5-c]quinolin-2-one]",8,23
"Cc1nn(C)cc1-n1c(=O)n(C)c2cnc3ccc(-c4cncc(N(C)C)c4)cc3c21 [Example 178, 8-(5-Dimethylamino-pyridin-3-yl)-1-(1,3-dimethyl-1H-pyrazol-4-yl)-3-methyl-1,3-dihydro-imidazo[4,5-c]quinolin-2-one]",25,82
"CNc1cncc(-c2ccc3ncc4c(c3c2)n(-c2cn(C(C)C)nc2C)c(=O)n4C)c1 [Example 180.2, 1-(1-Isopropyl-3-methyl-1H-pyrazol-4-yl)-3-methyl-8-(5-methylamino-pyridin-3-yl)-1,3-dihydro-imidazo[4,5-c]quinolin-2-one]",10,22
